Measurements published in patent publication US20260308186A1, “STAT DEGRADERS AND USES THEREOF” (Recludix Pharma, Inc., priority 2023, published 2026).
Where two headings read alike, the source gives them in different places.

Tests used:
[1] = molecular target: T1, pSTAT6 (Homo sapiens, UniProt P42226); assay: MSD-pSTAT-PBMC Assay, pSTAT6 (IL-4 stimulated PBMC); type: cell-based
T1 construct: pY641-STAT6 MSD read-out
T1 sequence (P42226 1-847): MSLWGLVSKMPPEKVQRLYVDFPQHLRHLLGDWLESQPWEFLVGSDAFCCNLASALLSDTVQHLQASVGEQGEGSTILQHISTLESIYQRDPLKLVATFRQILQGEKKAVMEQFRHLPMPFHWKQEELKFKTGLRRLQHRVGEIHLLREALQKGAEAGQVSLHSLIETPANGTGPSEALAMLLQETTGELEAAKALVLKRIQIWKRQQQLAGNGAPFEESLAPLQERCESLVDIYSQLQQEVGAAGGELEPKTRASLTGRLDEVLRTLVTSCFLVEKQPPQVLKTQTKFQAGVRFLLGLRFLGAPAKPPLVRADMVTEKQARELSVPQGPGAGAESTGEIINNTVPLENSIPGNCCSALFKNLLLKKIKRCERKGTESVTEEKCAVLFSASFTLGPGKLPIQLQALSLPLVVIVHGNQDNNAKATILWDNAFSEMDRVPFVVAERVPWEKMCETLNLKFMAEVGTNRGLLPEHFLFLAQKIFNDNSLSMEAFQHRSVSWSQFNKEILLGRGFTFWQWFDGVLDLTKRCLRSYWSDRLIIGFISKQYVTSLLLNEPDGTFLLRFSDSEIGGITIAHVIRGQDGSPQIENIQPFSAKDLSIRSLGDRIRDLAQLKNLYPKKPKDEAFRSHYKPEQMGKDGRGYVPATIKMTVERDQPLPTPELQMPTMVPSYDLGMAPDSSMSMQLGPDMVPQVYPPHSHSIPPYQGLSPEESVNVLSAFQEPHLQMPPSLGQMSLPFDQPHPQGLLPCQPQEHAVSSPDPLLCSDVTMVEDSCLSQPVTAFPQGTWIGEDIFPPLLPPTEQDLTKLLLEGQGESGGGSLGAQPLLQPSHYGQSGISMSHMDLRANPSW
Method in brief: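 Human PBMC were recovered overnight, treated 3 h with compound, then stimulated for 10 min with 10 ng/mL IL-6 (pSTAT3) or 1 ng/mL IL-4 (pSTAT6). Lysates were read by MSD sandwich immunoassay, with total STAT capture and pY705-STAT3 or pY641-STAT6 detection. Signal minus unstimulated wells was normalized to DMSO, and IC50 came from a variable-slope fit.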

[2] = molecular target: T2, pSTAT3 (Homo sapiens, UniProt P40763); assay: MSD-pSTAT-PBMC Assay, pSTAT3 (IL-6 stimulated PBMC); type: cell-based
T2 construct: pY705-STAT3 MSD read-out
T2 sequence (P40763 whole entry): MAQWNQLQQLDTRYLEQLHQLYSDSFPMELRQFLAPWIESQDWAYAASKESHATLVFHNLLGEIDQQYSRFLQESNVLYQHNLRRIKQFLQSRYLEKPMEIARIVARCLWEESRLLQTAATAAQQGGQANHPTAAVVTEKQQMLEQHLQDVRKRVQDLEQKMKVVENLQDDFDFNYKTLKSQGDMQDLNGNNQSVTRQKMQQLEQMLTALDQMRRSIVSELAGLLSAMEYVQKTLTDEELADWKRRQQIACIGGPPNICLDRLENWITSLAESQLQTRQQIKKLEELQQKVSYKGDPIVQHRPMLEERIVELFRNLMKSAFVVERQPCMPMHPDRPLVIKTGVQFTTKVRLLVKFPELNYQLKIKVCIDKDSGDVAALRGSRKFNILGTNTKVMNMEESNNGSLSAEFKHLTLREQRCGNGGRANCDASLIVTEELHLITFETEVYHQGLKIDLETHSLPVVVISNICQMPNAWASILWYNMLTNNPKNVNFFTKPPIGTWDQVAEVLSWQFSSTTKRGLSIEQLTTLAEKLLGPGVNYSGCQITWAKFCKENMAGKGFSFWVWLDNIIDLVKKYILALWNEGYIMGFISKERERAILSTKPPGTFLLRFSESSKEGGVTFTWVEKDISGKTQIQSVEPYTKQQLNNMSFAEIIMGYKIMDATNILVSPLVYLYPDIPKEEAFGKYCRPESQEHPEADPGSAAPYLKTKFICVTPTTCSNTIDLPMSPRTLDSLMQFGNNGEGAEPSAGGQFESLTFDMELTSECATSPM
Description: Cryopreserved Peripheral Blood Mononuclear Cells (PBMC) are from AllCells. Recombinant Human IL-4 and IL-6 are from Peprotech. Mouse monoclonal anti-STAT3 antibody, rabbit monoclonal anti-pY705-STAT3 antibody, rabbit monoclonal Anti-pY641-STAT6 antibody, and lysis buffer are from Cell Signaling Technology (CST). Mouse monoclonal anti-STAT6 antibody is from BioLegend. Assay plates, blocker, and anti-rabbit secondary antibody are from Meso Scale Discovery (MSD).
Cryopreserved PBMCs were thawed out and allowed to recover overnight in IMDM+10% heat-inactivated FBS prior to plating 50,000 (STAT3) or 25,000 (STAT6) cells per well in 96-well U-bottom tissue culture plates. Cells were treated with compound for 3 hrs. then stimulated with 10 ng/mL IL-6 (STAT3) or 1 ng/mL IL-4 (STAT6) for 10 min. Cells were then spun down and washed with ice-cold PBS prior to lysing the cell pellet with 1× lysis buffer (CST) with 1×HALT protease and phosphatase inhibitor cocktail (Thermo). Lysates were transferred to and incubated overnight at 4° C. with shaking in QuickPlex 96-well high bind assay plates (MSD) pre-coated overnight with 30 μL per well of 0.6 μg/mL mouse monoclonal anti-STAT3 antibody (STAT3) or 2 μg/mL mouse monoclonal anti-STAT6 antibody (STAT6) in 1×PBS, and pre-blocked for 1 hour with 3% Blocker-A (MSD). Captured protein in the assay plates were then washed and probed with 25 μL per well of 0.25 μg/ml rabbit monoclonal anti-pY705-STAT3 antibody (STAT3) or 0.18 μg/ml rabbit monoclonal Anti-pY641-STAT6 antibody (STAT6) in 1% Blocker-A for 1 hour at room temperature with shaking, then washed and probed with 25 ul per well of 1 ug/ml Sulfo-TAG Labeled Goat Anti-Rabbit Antibody (MSD) in 1% Blocker-A for 1 hour at room temperature with shaking. Assay plates were then washed and 150 μL of 1× Read Buffer-T (MSD) was added to each well prior to reading on an SQ120 MSD Plate Reader. Assay signal from each sample was subtracted by the signal from unstimulated control wells and normalized to DMSO control wells. IC50 values were calculated using Graph Pad Prism Dose-Response Nonlinear Regression with variable slope. For both pSTAT3 and pSTAT6 A=≤100 nM; B=>100-1000 nM; C=>1000-3000 nM; and D=>3 μM.

[3] = read-out: pSTAT6 IC50, compound 3 hrs, then 1 ng/mL IL-4 for 10 min, pY641-STAT6
[4] = read-out: pSTAT3 IC50, compound 3 hrs, then 10 ng/mL IL-6 for 10 min, pY705-STAT3

SMILES	IC50 [1, 3] [µM]	IC50 [2, 4] [µM]	IC50 ([1]; compound 3 hrs, then 1 ng/mL IL-4 for 10 min, pY641-STAT6, read-out: pSTAT6 IC50) [µM]	IC50 ([2]; compound 3 hrs, then 10 ng/mL IL-6 for 10 min, pY705-STAT3, read-out: pSTAT3 IC50) [µM]
CCCC(=O)SCCOP(=O)(OCCSC(=O)CCC)C(F)(F)c1ccc2ccc(C(=O)N[C@H]3CN(C(=O)c4n[nH]c5ccc(C)cc45)CC[C@H]4CC[C@@H](C(=O)NCCCCCCC#Cc5cccc6c5CN(C5CCC(=O)NC5=O)C6=O)N4C3=O)cc2c1 (stereo partly drawn) [Compound 10, S,S′-(((((7-(((5S,8S,10aR)-8-((8-(2-(2,6-dioxopiperidin-3-yl)-1-oxoisoindolin-4-yl)oct-7-yn-1-yl)carbamoyl)-3-(5-methyl-1H-indazole-3-carbonyl)-6-oxodecahydropyrrolo[1,2-a][1,5]diazocin-5-yl)carbamoyl)naphthalen-2-yl)difluoromethyl)phosphoryl)bis(oxy))bis(ethane-2,1-diyl)) dibutanethioate]	< 0.1	> 3		
CCCC(=O)SCCOP(=O)(OCCSC(=O)CCC)C(F)(F)c1ccc2ccc(C(=O)N[C@H]3CN(C(=O)c4n[nH]c5ccc(C)cc45)CC[C@H]4CC[C@@H](C(=O)NCCCCCCCCC(=O)N[C@H](C(=O)N5C[C@H](O)C[C@H]5C(=O)N[C@@H](C)c5ccc(-c6scnc6C)cc5)C(C)(C)C)N4C3=O)cc2c1 [Compound 8, S,S′-((((difluoro(7-(((5S,8S,10aR)-8-((9-(((S)-1-((2S,4R)-4-hydroxy-2-(((S)-1-(4-(4-methylthiazol-5-yl)phenyl)ethyl)carbamoyl)pyrrolidin-1-yl)-3,3-dimethyl-1-oxobutan-2-yl)amino)-9-oxononyl)carbamoyl)-3-(5-methyl-1H-indazole-3-carbonyl)-6-oxodecahydropyrrolo[1,2-a][1,5]diazocin-5-yl)carbamoyl)naphthalen-2-yl)methyl)phosphoryl)bis(oxy))bis(ethane-2,1-diyl)) dibutanethioate]	1 to 3	> 3		
CCCC(=O)SCCOP(=O)(OCCSC(=O)CCC)C(F)(F)c1ccc2ccc(C(=O)N[C@H]3CN(C(=O)c4n[nH]c5ccc(C)cc45)CC[C@H]4CC[C@@H](C(=O)N(C)CCCCCCC#Cc5cccc6c5CN(C5CCC(=O)NC5=O)C6=O)N4C3=O)cc2c1 (stereo partly drawn) [Compound 12, S,S′-(((((7-(((5S,8S,10aR)-8-((8-(2-(2,6-dioxopiperidin-3-yl)-1-oxoisoindolin-4-yl)oct-7-yn-1-yl)(methyl)carbamoyl)-3-(5-methyl-1H-indazole-3-carbonyl)-6-oxodecahydropyrrolo[1,2-a][1,5]diazocin-5-yl)carbamoyl)naphthalen-2-yl)difluoromethyl)phosphoryl)bis(oxy))bis(ethane-2,1-diyl)) dibutanethioate]	< 0.1	> 3		
Cc1ccc2onc(C(=O)N3CC[C@H]4CC[C@@H](C(=O)N(C)CCCCCCC#Cc5cccc6c5CN(C5CCC(=O)NC5=O)C6=O)N4C(=O)[C@@H](NC(=O)c4ccc5ccc(C(F)(F)P(=O)(OCCSC(=O)CC(C)C)OCCSC(=O)CC(C)C)cc5c4)C3)c2c1 (stereo partly drawn) [Compound 21, S,S′-(((((7-(((5S,8S,10aR)-8-((8-(2-(2,6-dioxopiperidin-3-yl)-1-oxoisoindolin-4-yl)oct-7-yn-1-yl)(methyl)carbamoyl)-3-(5-methylbenzo[d]isoxazole-3-carbonyl)-6-oxodecahydropyrrolo[1,2-a][1,5]diazocin-5-yl)carbamoyl)naphthalen-2-yl)difluoromethyl)phosphoryl)bis(oxy))bis(ethane-2,1-diyl)) bis(3-methylbutanethioate)]			< 0.1	> 3
CC(=O)N1CC[C@H]2CC[C@@H](C(=O)Nc3ccc(-c4ccc(NC(=O)CCCCCC#Cc5cccc6c5CN(C5CCC(=O)NC5=O)C6=O)cc4)cc3)N2C(=O)[C@@H](NC(=O)c2cc3cc(C(F)(F)P(=O)(OCOC(=O)C(C)(C)C)OCOC(=O)C(C)(C)C)ccc3[nH]2)C1 (stereo partly drawn) [Compound 4, ((((2-(((5S,8S,10aR)-3-acetyl-8-((4′-(8-(2-(2,6-dioxopiperidin-3-yl)-1-oxoisoindolin-4-yl)oct-7-ynamido)-[1,1′-biphenyl]-4-yl)carbamoyl)-6-oxodecahydropyrrolo[1,2-a][1,5]diazocin-5-yl)carbamoyl)-1H-indol-5-yl)difluoromethyl)phosphoryl)bis(oxy))bis(methylene) bis(2,2-dimethylpropanoate)]	> 3	1 to 3		
CCCOC(=O)[C@H](C)NP(=O)(Oc1ccccc1)C(F)c1ccc2ccc(C(=O)N[C@H]3CN(C(=O)c4n[nH]c5ccc(C)cc45)CC[C@H]4CC[C@@H](C(=O)N(C)CCCCCCC#Cc5cccc6c5CN(C5CCC(=O)NC5=O)C6=O)N4C3=O)cc2c1 (stereo partly drawn) [Compound 13, propyl (((7-(((5S,8S,10aR)-8-((8-(2-(2,6-dioxopiperidin-3-yl)-1-oxoisoindolin-4-yl)oct-7-yn-1-yl)(methyl)carbamoyl)-3-(5-methyl-1H-indazole-3-carbonyl)-6-oxodecahydropyrrolo[1,2-a][1,5]diazocin-5-yl)carbamoyl)naphthalen-2-yl)fluoromethyl)(phenoxy)phosphoryl)-L-alaninate]	> 3	> 3		
CN(C(=O)[C@@H]1CC[C@@H]2CCN(C(=O)CCCCCC#Cc3cccc4c3CN(C3CCC(=O)NC3=O)C4=O)C[C@H](NC(=O)c3cc4cc(C(F)(F)P(=O)(OCOC(=O)C(C)(C)C)OCOC(=O)C(C)(C)C)ccc4[nH]3)C(=O)N21)c1ccccc1 (stereo partly drawn) [Compound 2, ((((2-(((5S,8S,10aR)-3-(8-(2-(2,6-Dioxopiperidin-3-yl)-1-oxoisoindolin-4-yl)oct-7-ynoyl)-8-(methyl(phenyl)carbamoyl)-6-oxodecahydropyrrolo[1,2-a][1,5]diazocin-5-yl)carbamoyl)-1H-indol-5-yl)difluoromethyl)phosphoryl)bis(oxy))bis(methylene) bis(2,2-dimethylpropanoate)]	1 to 3	1 to 3		
CCCC(=O)SCCOP(=O)(OCCSC(=O)CCC)C(F)(F)c1ccc2sc(C(=O)N[C@H]3CN(C(=O)CCCCCC#Cc4cccc5c4CN(C4CCC(=O)NC4=O)C5=O)CC[C@H]4CC[C@@H](C(=O)N5CC(c6cnccc6N(C)C)C5)N4C3=O)cc2c1 (stereo partly drawn) [Compound 38, S,S′-(((((2-(((5S,8S,10aR)-8-(3-(4-(dimethylamino)pyridin-3-yl)azetidine-1-carbonyl)-3-(8-(2-(2,6-dioxopiperidin-3-yl)-1-oxoisoindolin-4-yl)oct-7-ynoyl)-6-oxodecahydropyrrolo[1,2-a][1,5]diazocin-5-yl)carbamoyl)benzo[b]thiophen-5-yl)difluoromethyl)phosphoryl)bis(oxy))bis(ethane-2,1-diyl)) dibutanethioate]		< 0.1		
